According to BindingDB's records for doi:10.1002/cbic.201402673 (University of Groningen, 2015):

The molecules below were run against T1, Thiamine transporter ThiT (Lactococcus lactis subsp. cremoris (strain MG1363), UniProt A2RI47) (assay: Intrinsic-Fluorescence Titration).
T1 sequence (A2RI47 whole entry): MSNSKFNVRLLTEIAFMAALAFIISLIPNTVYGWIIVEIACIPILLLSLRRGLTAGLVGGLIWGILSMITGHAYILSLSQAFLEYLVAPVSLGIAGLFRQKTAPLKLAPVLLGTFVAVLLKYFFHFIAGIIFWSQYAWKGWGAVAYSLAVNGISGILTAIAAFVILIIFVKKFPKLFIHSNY
Protocol: Purified ThiT was diluted in buffer E to a concentration of ~50 nM in a final volume of 800 µL. The substrates were added in 1 µL steps. Using an excitation wavelength of 280 nm, emission was measured at 350 nm and 25 °C. After each addition of substrate, 10 s were allowed for equilibration and mixing, and the signals were averaged over 15 s.
`Cc1ncc(Cc2cccc(CCO)c2)c(N)n1` [2-(3-((4-Amino-2-methylpyrimidin-5-yl)methyl)phenyl)ethanol (8)] gave a Kd of 266 nM. For `Cc1ncc(Cc2csc(CCO)c2C)c(N)n1` [3-Deazathiamine], the Kd was 4.23 nM. `Cc1ncc(Cc2csc(C=O)c2C)c(N)n1` [4-((4-Amino-2-methylpyrimidin-5-yl)methyl)-3-methylthiophene-2-carbaldehyde (9)] showed a Kd of 7.44 nM. For `Cc1ncc(Cc2cccc(CO)c2)c(N)n1` [(3-((4-Amino-2-methylpyrimidin-5-yl)methyl)phenyl)methanol (6)], the Kd was 528 nM. `Cc1ncc(Cc2csc(CO)c2C)c(N)n1` [(4-((4-Amino-2-methylpyrimidin-5-yl)methyl)-3-methylthiophen-2-yl)methanol (7)] gave a Kd of 5.21 nM.
